Results published in the Kinase Knowledgebase extract (Sharma et al. 2016).

target: EGFR (Human), P00533 [T790M/L858R]; details: nci-h1975
Sequence (P00533 whole entry T790M/L858R, looked up): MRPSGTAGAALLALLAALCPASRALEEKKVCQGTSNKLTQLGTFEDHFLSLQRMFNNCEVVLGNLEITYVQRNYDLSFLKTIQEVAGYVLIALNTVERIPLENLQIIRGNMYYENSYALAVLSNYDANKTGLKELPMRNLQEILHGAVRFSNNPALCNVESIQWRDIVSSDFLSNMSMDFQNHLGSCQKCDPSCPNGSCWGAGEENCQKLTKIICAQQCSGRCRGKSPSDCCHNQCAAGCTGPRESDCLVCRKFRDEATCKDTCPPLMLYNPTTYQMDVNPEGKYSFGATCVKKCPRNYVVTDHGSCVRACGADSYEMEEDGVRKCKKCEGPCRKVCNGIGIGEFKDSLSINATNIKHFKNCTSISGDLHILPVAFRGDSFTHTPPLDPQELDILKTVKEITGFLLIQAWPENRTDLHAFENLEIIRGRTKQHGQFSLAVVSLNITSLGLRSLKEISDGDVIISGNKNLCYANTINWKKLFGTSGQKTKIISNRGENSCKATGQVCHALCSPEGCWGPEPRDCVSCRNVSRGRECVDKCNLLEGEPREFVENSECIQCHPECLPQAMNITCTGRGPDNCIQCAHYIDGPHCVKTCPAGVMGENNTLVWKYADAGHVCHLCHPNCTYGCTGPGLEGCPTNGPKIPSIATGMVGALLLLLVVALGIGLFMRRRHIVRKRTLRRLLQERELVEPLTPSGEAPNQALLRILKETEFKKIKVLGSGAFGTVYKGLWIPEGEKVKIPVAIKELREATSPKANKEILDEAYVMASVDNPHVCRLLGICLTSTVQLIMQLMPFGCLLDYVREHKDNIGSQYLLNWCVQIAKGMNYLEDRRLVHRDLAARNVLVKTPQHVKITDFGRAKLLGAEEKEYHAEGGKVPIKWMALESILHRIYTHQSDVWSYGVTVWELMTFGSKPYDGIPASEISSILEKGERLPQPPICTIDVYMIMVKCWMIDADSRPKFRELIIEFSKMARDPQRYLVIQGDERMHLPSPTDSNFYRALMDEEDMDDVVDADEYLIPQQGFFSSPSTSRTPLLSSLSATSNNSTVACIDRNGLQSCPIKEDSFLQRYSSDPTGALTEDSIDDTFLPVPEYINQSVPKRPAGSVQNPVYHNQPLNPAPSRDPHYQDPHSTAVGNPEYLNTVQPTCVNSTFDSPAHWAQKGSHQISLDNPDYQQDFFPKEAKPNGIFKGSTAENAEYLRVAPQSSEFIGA

SMILES | EC50 [µM]
CCS(=O)(=O)n1cc(-c2nccc(Nc3cc4c(cn3)c(NC3CCOC3)nn4C(C)C)n2)cn1 (stereo not given) | 0.272
CC(C)n1nc(N2CC(C(=O)N3CC[C@@H](O)C3)C2)c2cnc(Nc3ccnc(-c4cnn(S(=O)(=O)C5CC5)c4)n3)cc21 | 2.52
CC(C)n1nc(N2CCNC(=O)C2)c2cnc(Nc3ccnc(-c4cnn(S(=O)(=O)C5CC5)c4)n3)cc21 | 0.738
CC(C)n1nc(NCCS(C)(=N)=O)c2cnc(Nc3ccnc(-c4cnn(S(=O)(=O)C5CC5)c4)n3)cc21 (stereo not given) | > 10
CC(C)n1nc(N2CCCC2)c2cnc(Nc3ccnc(-c4cnn(CC5CC5)c4)n3)cc21 | 1.06
CC(C)n1nc(N(C)CC(O)CO)c2cnc(Nc3ccnc(-c4cnn(S(=O)(=O)C5CC5)c4)n3)cc21 (stereo not given) | 0.945
CCN1CCN(c2nn(C(C)C)c3cc(Nc4ccnc(-c5cnn(S(=O)(=O)C6CC6)c5)n4)ncc23)CC1 | 1.01
CCC(C)n1nc(N2CC3(COC3)C2)c2cnc(Nc3ccnc(-c4cnn(S(=O)(=O)C5CC5)c4)n3)cc21 (stereo not given) | 0.216
CC(C)n1nc(N2CC3CCC(C2)O3)c2cnc(Nc3ccnc(-c4cnn(S(=O)(=O)C5CC5)c4)n3)cc21 | 1.21
CCC(C)n1nc(N2CC(N)C(F)(F)C2)c2cnc(Nc3ccnc(N4CCC(C)(O)CC4)n3)cc21 (stereo not given) | 0.761
CC(C)n1nc(N2CC[C@@H](C#N)C2)c2cnc(Nc3ccnc(-c4cnn(S(=O)(=O)C5CC5)c4)n3)cc21 | 0.121
CC(C)n1nc(NCCC2OCC(N)CO2)c2cnc(Nc3ccnc(N4CCC(C)(O)CC4)n3)cc21 (stereo not given) | > 10
CC(C)n1nc(N2CC(C#N)C2)c2cnc(Nc3ccnc(-c4cnn(S(=O)(=O)C5CC5)c4)n3)cc21 | 0.144
CC[C@@H](C)n1nc(N2CC3(COC3)C2)c2cnc(Nc3ccnc(N4CC[C@@H](O)[C@@H](F)C4)n3)cc21 | 0.149
CC1CN(c2nn(C(C)C)c3cc(Nc4ccnc(-c5cnn(S(=O)(=O)C6CC6)c5)n4)ncc23)C(=O)N1 (stereo not given) | 0.377
CC(C)n1nc(N2CCC(C)(C(N)=O)C2)c2cnc(Nc3ccnc(N4CCC(C)(O)CC4)n3)cc21 (stereo not given) | 2.86
CC(C)n1nc(N2CCOC2=O)c2cnc(Nc3ccnc(-c4cnn(S(=O)(=O)C5CC5)c4)n3)cc21 | 0.206
CC(C)n1nc(N)c2cnc(Nc3ccnc(-c4cnn(S(=O)(=O)C5CC5)c4)n3)cc21 | 0.247
CC(C)n1nc(N2CCOCC2)c2cnc(Nc3ccnc(-c4cnn(S(=O)(=O)C5CC5)c4)n3)cc21 | 0.266

SMILES | EC50 [µM]
CC(C)n1nc(NCCC(N)=O)c2cnc(Nc3ccnc(-c4cnn(S(=O)(=O)C5CC5)c4)n3)cc21 | 3.97
CC(n1nc(N2CCNC2=O)c2cnc(Nc3ccnc(N4CCC(C)(O)CC4)n3)cc21)C(F)(F)F (stereo not given) | 1.07
CC(C)n1nc(N2CCC3(CNC(=O)C3)C2)c2cnc(Nc3ccnc(-c4cnn(S(=O)(=O)C5CC5)c4)n3)cc21 (stereo not given) | 1.79
CC(C)n1nc(N2CC(C(=O)NCC(F)(F)F)C2)c2cnc(Nc3ccnc(-c4cnn(S(=O)(=O)C5CC5)c4)n3)cc21 | 0.193
CC(C)n1nc(N2CC[C@H](O)C2)c2cnc(Nc3ccnc(-c4cnn(S(=O)(=O)C5CC5)c4)n3)cc21 | 0.201
CC(C)n1nc(N[C@@H]2CCOC2)c2cnc(Nc3ccnc(-c4cnn(S(=O)(=O)C5CC5)c4)n3)cc21 | 0.775
CC(C)n1nc(N2CC(C(C)(C)C(N)=O)C2)c2cnc(Nc3ccnc(N4CCC(C)(O)CC4)n3)cc21 | > 10
CCC(C)n1nc(N2CCS(=N)(=O)CC2)c2cnc(Nc3ccnc(N4CCC(C)(O)CC4)n3)cc21 (stereo not given) | 9.98
CC(C)n1nc(N2CCC(O)C2)c2cnc(Nc3ccnc(-c4cnn(S(=O)(=O)C5CC5)c4)n3)cc21 (stereo not given) | 0.201
CC(C)n1nc(N2CC(C(C)(C)O)C2)c2cnc(Nc3ccnc(-c4cnn(S(=O)(=O)C5CC5)c4)n3)cc21 | 0.423
CC(C)n1nc(N2CC3(COC3)C2)c2cnc(Nc3ccnc(N4CCC(O)C(C)(C)C4)n3)cc21 (stereo not given) | 0.159
CCC(C)n1nc(N2CC[C@@H](O)C2)c2cnc(Nc3ccnc(N4CCC(CC#N)(OC)CC4)n3)cc21 (stereo not given in full) | 1.47
CC[C@@H](C)n1nc(N2CC(C(C)(C)O)C2)c2cnc(Nc3ccnc(N4CC[C@@H](O)[C@@H](F)C4)n3)cc21 | 0.334
CC(C)n1nc(C2CCOC2)c2cnc(Nc3ccnc(-c4cnn(S(=O)(=O)C5CC5)c4)n3)cc21 (stereo not given) | 1.47
CC(C)n1nc(N2CC(C)(CO)C2)c2cnc(Nc3ccnc(-c4cnn(S(=O)(=O)C5CC5)c4)n3)cc21 | 0.62
CC(C)n1nc(NC(=O)C(C)(C)O)c2cnc(Nc3ccnc(-c4cnn(S(=O)(=O)C5CC5)c4)n3)cc21 | 2.08
CC[C@H](C)n1nc(N2CC[C@@H](O)C2)c2cnc(Nc3ccnc(N4CC[C@](C)(O)[C@H](F)C4)n3)cc21 | 0.521
CC[C@@H](C)n1nc(N2CC[C@@H](O)C2)c2cnc(Nc3ccnc(N4CC[C@](C)(C(N)=O)C4)n3)cc21 | 4.05

Second part, the compound after the results:

EC50 [µM] | SMILES
2.02 | CC(C)n1nc(N2CCS(=O)(=O)CC2)c2cnc(Nc3ccnc(-c4cnn(S(=O)(=O)C5CC5)c4)n3)cc21
0.929 | CCN1CCN(c2nn(C(C)C)c3cc(Nc4ccnc(-c5cnn(S(=O)(=O)C6CC6)c5)n4)ncc23)C1=O
0.163 | CC(C)n1nc(N2CCC(C(=O)N(C)C)C2)c2cnc(Nc3ccnc(-c4cnn(S(=O)(=O)C5CC5)c4)n3)cc21 (stereo not given)
0.397 | CCS(=O)(=O)n1cc(-c2nccc(Nc3cc4c(cn3)c(N3CC(CO)C3)nn4C(C)C)n2)cn1
0.825 | CC(C)NC(=O)C1CN(c2nn(C(C)C)c3cc(Nc4ccnc(-c5cnn(S(=O)(=O)C6CC6)c5)n4)ncc23)C1
1.26 | CC(C)n1nc(N2CCOCC2)c2cnc(Nc3ccnc(NCC(C)(C)S(C)(=O)=O)n3)cc21
0.785 | CC[C@H](C)n1nc(N2CC3(COC3)C2)c2cnc(Nc3ccnc(OCC(C)(C)S(C)(=O)=O)n3)cc21
1.83 | CC(C)n1nc(N2CC(C(=O)N3CC[C@@H](CO)C3)C2)c2cnc(Nc3ccnc(-c4cnn(S(=O)(=O)C5CC5)c4)n3)cc21
0.699 | CC(n1nc(N2CC3(COC3)C2)c2cnc(Nc3ccnc(-c4cnn(S(=O)(=O)C5CC5)c4)n3)cc21)C(F)(F)F (stereo not given)
0.499 | CC(C)n1nc(N2CCCC2)c2cnc(Nc3ccnc(N4CCC(O)C(C)(C)C4)n3)cc21 (stereo not given)
0.537 | CCC(C)n1nc(N2CC(C(C)O)C2)c2cnc(Nc3ccnc(-c4cnn(S(=O)(=O)C5CC5)c4)n3)cc21 (stereo not given)
3.29 | CC(n1nc(N2CC3(COC3)C2)c2cnc(Nc3ccnc(N4CCC(C)(O)CC4)n3)cc21)C(F)(F)F (stereo not given)
0.901 | CC(n1nc(N2CC[C@@H](O)C2)c2cnc(Nc3ccnc(N4CCC(C)(O)CC4)n3)cc21)C(F)(F)F (stereo not given in full)
> 10 | CC(C)n1nc(N2CC(C(=O)NC3CC(O)C3)C2)c2cnc(Nc3ccnc(-c4cnn(S(=O)(=O)C5CC5)c4)n3)cc21 (stereo not given)
0.938 | CC(C)n1nc(N2CC(C(N)=O)C2)c2cnc(Nc3ccnc(-c4cnn(S(=O)(=O)C5CC5)c4)n3)cc21
0.237 | CC(C)n1nc(N2CCN=C2O)c2cnc(Nc3ccnc(-c4cnn(S(=O)(=O)C5CC5)c4)n3)cc21
8.27 | CC(C)n1nc(NC(C)(C)C#N)c2cnc(Nc3ccnc(N4CC[C@H](O)[C@H](F)C4)n3)cc21
0.498 | CC(C)n1ncc2cnc(Nc3ccnc(-c4cnn(CC5CC5)c4)n3)cc21
9.13 | CC[C@@H](C)n1nc(N2CC[C@@H](O)C2)c2cnc(Nc3ccnc(N4CCC5(CC4)CNC(=O)CO5)n3)cc21
1.45 | COCCNC(=O)C1CN(c2nn(C(C)C)c3cc(Nc4ccnc(-c5cnn(S(=O)(=O)C6CC6)c5)n4)ncc23)C1
0.429 | CC[C@H](C)n1nc(N2CC(C(C)(C)O)C2)c2cnc(Nc3ccnc(N4CC[C@@H](O)[C@@H](F)C4)n3)cc21
0.877 | CC(C)n1nc(NCCO)c2cnc(Nc3ccnc(-c4cnn(S(=O)(=O)C5CC5)c4)n3)cc21

EC50 [µM] | SMILES
1.16 | CC(C)n1nc(N2CC(C(=O)N3CC[C@H](CO)C3)C2)c2cnc(Nc3ccnc(-c4cnn(S(=O)(=O)C5CC5)c4)n3)cc21
0.951 | CC(C)Nc1nn(C(C)C)c2cc(Nc3ccnc(-c4cnn(S(=O)(=O)C5CC5)c4)n3)ncc12
0.66 | CC(C)n1nc(N2CC(O)(CO)C2)c2cnc(Nc3ccnc(-c4cnn(S(=O)(=O)C5CC5)c4)n3)cc21
> 10 | CC(C)n1nc(N2CC(N)CC2=O)c2cnc(Nc3ccnc(N4CCC(C)(O)CC4)n3)cc21 (stereo not given)
1.71 | Cc1cn[nH]c1-c1nn(C(C)C)c2cc(Nc3ccnc(N4CCC(O)C(C)(C)C4)n3)ncc12 (stereo not given)
0.619 | CCC(C)n1nc(N2CC[C@@H](O)C2)c2cnc(Nc3ccnc(N4CCC(C)(O)CC4)n3)cc21 (stereo not given in full)
1.6 | CCC(C)n1nc(N2CC(F)(F)C2)c2cnc(Nc3ccnc(N4CCC(C)(O)CC4)n3)cc21 (stereo not given)
0.765 | CC(C)n1nc(N2CCCNC2=O)c2cnc(Nc3ccnc(-c4cnn(S(=O)(=O)C5CC5)c4)n3)cc21
0.344 | CC(C)n1nc(N2CC(C(=O)N3CCOCC3)C2)c2cnc(Nc3ccnc(-c4cnn(S(=O)(=O)C5CC5)c4)n3)cc21
0.798 | CC(C)n1nc(OC2CCOC2)c2cnc(Nc3ccnc(-c4cnn(S(=O)(=O)C5CC5)c4)n3)cc21 (stereo not given)
0.404 | CC(C)n1nc(N2CC[C@@H](O)C2)c2cnc(Nc3ccnc(N4CC[C@@H](O)[C@@H](F)C4)n3)cc21
0.421 | CC(C)n1nc(N2CC3(COC3)C2)c2cnc(Nc3ccnc(-c4cnn(S(=O)(=O)C5CC5)c4)n3)cc21
1.11 | CCC(C)n1nc(N2CC[C@@H](O)C2)c2cnc(Nc3ccnc(N4CCC(S(C)(=O)=O)CC4)n3)cc21 (stereo not given in full)
1.84 | CC(C)n1nc(N2CCOCC2)c2cnc(Nc3ccnc(-c4cnn(CC5CC5)c4)n3)cc21
0.732 | CC(C)n1nc(N2CC3(COC3)C2)c2cnc(Nc3ccnc(-c4cnn(CC5CC5)c4)n3)cc21
8.12 | CC(C)n1nc(N2CC[C@@H](N)C2=O)c2cnc(Nc3ccnc(N4CCC(C)(O)CC4)n3)cc21
1.12 | CC(C)n1nc(N2CC(O)C2)c2cnc(Nc3ccnc(-c4cnn(S(=O)(=O)C5CC5)c4)n3)cc21
0.65 | CNC(=O)C1CN(c2nn(C(C)C)c3cc(Nc4ccnc(-c5cnn(S(=O)(=O)C6CC6)c5)n4)ncc23)C1
0.373 | CC(C)n1nc(N[C@H]2CCOC2)c2cnc(Nc3ccnc(-c4cnn(S(=O)(=O)C5CC5)c4)n3)cc21
0.696 | CCC(C)n1nc(N2CC[C@H](O)C2=O)c2cnc(Nc3ccnc(-c4cnn(S(=O)(=O)C5CC5)c4)n3)cc21 (stereo not given in full)
0.283 | CC(C)n1nc(N2CC(C(=O)N3CC4CCC(C3)O4)C2)c2cnc(Nc3ccnc(-c4cnn(S(=O)(=O)C5CC5)c4)n3)cc21
